Source: patent US20200230126A1, “TARGETED THERAPEUTICS” (TARVEDA THERAPEUTICS, INC., priority 2017, published 2020)

What was measured:
Assay type in all cases: physicochemical
Solubility in water = assay: Solubility in water
Description: As discussed above, the solubility of SDC-TRAP-0063 Sodium is driven primarily by pH. […] Reducing the pH allows the equilibrium to shift more to the lactone form and adversely impacts solubility. Dilute solutions of SDC-TRAP-0063 Sodium result in a lower pH with an increased risk of precipitation. The solubility of SDC-TRAP-0063 Sodium has also been seen to be adversely impacted by the use of 0.9% Sodium Chloride as a diluent. A common ion effect is the likely source of this observation.

[1] = Solubility at various pH in 5% Mannitol (HCl addition, about 24 hours equilibration, 0.2 μm filtration); parameters: key to appearance: Conforms = clear and essentially free of visible particles
Protocol: (§1) Experiments were performed to assess the solubility of SDC-TRAP-0063 Sodium as a function of varying pH.

[2] = Solubility at various pH in 0.9% Sodium Chloride (HCl addition, about 24 hours equilibration, 0.2 μm filtration); parameters: key to appearance: Conforms = clear and essentially free of visible particles; conditions: 0.9% Saline
Protocol: as §1

[3] = 0 molar percent HCl added, pH 9.9
[4] = 8.1 molar percent HCl added, pH 9.6
[5] = 14.4 molar percent HCl added, pH 9.1
[6] = 33.1 molar percent HCl added, pH 8.7
[7] = 35.5 molar percent HCl added, pH 8.7

Q: What does the source list for `CCc1c2c(nc3ccc(OC(=O)N4CCC(CCn5ccc6cc(-n7c(O)nnc7-c7cc(C(C)C)c(O)cc7O)ccc65)CC4)cc13)-c1cc([C@@](O)(CC)C(=O)[O-])c(CO)c(=O)n1C2.[Na+]` [SDC-TRAP-0063 Sodium, Sodium (S)-2-(2-((4-(2-(5-(3-(2,4-dihydroxy-5-isopropylphenyl)-5-hydroxy-4H-1,2,4-triazol-4-yl)-1H-indol-1-yl)ethyl)piperidine-1-carbonyl)oxy)-12-ethyl-8-(hydroxymethyl)-9-oxo-9,11-dihydroindolizino[1,2-b]quinolin-7-yl)-2-hydroxybutanoate]?
A: solubility (Solubility in water): > 52.5 mg/mL; appearance ([1]; 0 molar percent HCl added, pH 10.1): Conforms^2; SDC-TRAP-0063 Sodium concentration in the solution ([1]; 0 molar percent HCl added, pH 10.1, after 24 hours of rocking, starting 23.6 mg/mL): >23.6 (after mg/mL; SDC-TRAP-0063 Sodium concentration in the solution ([1]; 10.5 molar percent HCl added, pH 9.9): >23.5 mg/mL; SDC-TRAP-0063 Sodium concentration in the solution ([1]; 18.2 molar percent HCl added, pH 9.9): >23.3 mg/mL; SDC-TRAP-0063 Sodium concentration in the solution ([1]; 33.1 molar percent HCl added, pH 9.1): 20.2 mg/mL; SDC-TRAP-0063 Sodium concentration in the solution ([1]; 35.5 molar percent HCl added, pH 9.4): 20.9 mg/mL; precipitation ([1]; maximum concentration of 12 mg/mL): does not result in precipitation; SDC-TRAP-0063 Sodium concentration in the solution [2, 3]: 22.9 mg/mL; appearance [2, 3]: Conforms^1; SDC-TRAP-0063 Sodium concentration in the solution [2, 4]: 23.4 mg/mL; appearance [2, 4]: Slightly hazy solution; SDC-TRAP-0063 Sodium concentration in the solution [2, 5]: 21.4 mg/mL; appearance [2, 5]: Slightly hazy solution; SDC-TRAP-0063 Sodium concentration in the solution [2, 6]: 18.6 mg/mL; appearance [2, 6]: Slightly hazy solution; appearance ([2]; 33.1 molar percent HCl added, pH 8.7, after 1 hour): gelation after 1 hour; SDC-TRAP-0063 Sodium concentration in the solution [2, 7]: 13.7 mg/mL; appearance [2, 7]: Slightly hazy solution; appearance ([2]; 35.5 molar percent HCl added, pH 8.7, after 1 hour): gelation after 1 hour
